The text below walks through data of patent EP0350012A2, “Antiviral composition” (MEIJI SEIKA KAISHA LTD., priority 1988, dated 1990).

≈ marks a conversion by molar mass, not a printed value. Read-outs that look alike come from different tables or passages of the source.

Data set [1] concerns Molt-4 cells and Molt-4/HIV cells. Description: cells. Particulars: for 50% Inhibitory Concentration (IC₅₀): giant cell formation inhibition, as indicated in Example 4. It counts as cell-based. The protocol:
After a test drug was dissolved in methanol medium for tissue culture was added to the solution to make a definite concentration. The concentration of methanol was finally adjusted to less than 2 %. HIV persistent injection Molt-4 cells (Molt-4/HIV cells) were precultured for 24 hours in the presence of the compound. The precultured Molt-4/HIV cells were mixed with HIV-non-infected Molt-4 cells, whereby the compound was prepared to have the same concentration as that of the preculture. The mixture was then cultured. Giant cell formation was compared between chemically intact control cells and the group to which the compound has been added 5 and 20 hours after mixing the culture to evaluate the effect of the chemical. The evaluation was made based on the method of Yamamoto et al. (Virology, 164, 542 - 546, 1988). The evaluation effect is shown in Table 1 in terms of fusion index.

Data set [2] has as its system mice. Description: Acute toxicity test, oral administration to mice. It counts as in vivo. Particulars: 4g/kg administered orally, 3 mice in each group. An excerpt: The compounds of the present invention have low toxicity.
[3] abbreviates: Homo sapiens, MOLT-4, read-out: 50% Inhibitory Concentration (IC₅₀).
Where [4] appears, read: 12.5 µg/ml, mixed culture 5 hours.
Setting [5] is: 12.5 µg/ml, mixed culture 20 hours.
The mark [6] stands for this setting: 25 µg/ml, mixed culture 5 hours.
The mark [7] stands for this setting: 25 µg/ml, mixed culture 20 hours.
Setting [8] is: 50 µg/ml, mixed culture 5 hours.
[9] abbreviates: 50 µg/ml, mixed culture 20 hours.
Setting [10] is: 100 µg/ml, mixed culture 5 hours.
The mark [11] stands for this setting: 100 µg/ml, mixed culture 20 hours.
The mark [12] stands for this setting: 200 µg/ml, mixed culture 5 hours.
The mark [13] stands for this setting: 200 µg/ml, mixed culture 20 hours.
The mark [14] stands for this setting: Homo sapiens, MOLT-4, 5 h, read-out: Giant cell formation inhibitory rate (%).
Setting [15] is: Homo sapiens, MOLT-4, 20 h, read-out: Giant cell formation inhibitory rate (%).
Where [16] appears, read: Homo sapiens, MOLT-4, read-out: 50 % of inhibitory concentration (IC₅₀ value) of the giant cell formation inhibition.

Regarding `OC[C@@H]1[C@@H](O)[C@H](O)[C@@H](O)CN1CCOc1ccccc1` [Control, N-(2-Phenoxyethyl)-1-deoxynojirimycin, reference compound], in data set [1] (setting [3]), the IC50 was in the range of 20 to 40 µg/mL (≈ 70.6 to 141 µM).
For `OC[C@@H]1[C@@H](O)[C@H](O)[C@@H](O)CN1CCCc1ccccc1` [Example 1, N-(3-phenylpropyl)-1-deoxynojirimycin], the Fusion index in data set [1] (setting [4]) is 0.11; in data set [1] (setting [5]), 0.34; in data set [1] (setting [6]), -0.07; in data set [1] (setting [7]), 0.18; in data set [1] (setting [8]), 0.19; in data set [1] (setting [9]), 0.13. For the same molecule, the Fusion index is recorded as 0 in data set [1] (setting [10]), 0.05 in data set [1] (setting [11]), 0.23 in data set [1] (setting [12]) and 0.18 in data set [1] (setting [13]). In data set [1] (20 hours after mixing the culture), the “effect of inhibiting the formation of giant cells” value is on record as “about 90%”. In addition, the inhibition at 12.5 µg/mL was found to be 79.6% in data set [1] (setting [14]) and 82.1% in data set [1] (setting [15]). For the same molecule, the results for the inhibition at 25 µg/mL in data set [1] (setting [14]) and in data set [1] (setting [15]) were 100% and 90.5%, respectively. The inhibition at 50 µg/mL in data set [1] (setting [14]) was determined as 64.8%; in data set [1] (setting [15]), 93.2%. In addition, the inhibition at 100 µg/mL in data set [1] (setting [14]) worked out at 100%; in data set [1] (setting [15]), 97.4%. Besides, the values for the inhibition at 200 µg/mL in data set [1] (setting [14]) and in data set [1] (setting [15]) were 57.4% and 90.5%, respectively. The IC50 in data set [1] (setting [16]) fell in the range of 5 to 10 µg/mL (≈ 17.8 to 35.5 µM). The “microscopic observation of giant cell formation” value in data set [1] (compared to the control cells) was “clearly inhibited the formation of giant cells”.
Turning to `OC[C@@H]1[C@@H](O)[C@H](O)[C@@H](O)CN1CC=Cc1ccccc1` [Example 2, N-(3-phenyl-2-propenyl)-1-deoxynojirimycin], the Fusion index is reported as 0.14 in data set [1] (setting [4]); -0.03 in data set [1] (setting [5]); 0.17 in data set [1] (setting [6]); -0.08 in data set [1] (setting [7]); 0.06 in data set [1] (setting [8]); -0.07 in data set [1] (setting [9]). In addition, the Fusion index in data set [1] (setting [10]) is reported as -0.10; in data set [1] (setting [11]), 0.10; in data set [1] (setting [12]), -0.08; in data set [1] (setting [13]) it was 0.10. The inhibition at 12.5 µg/mL is 74.1% in data set [1] (setting [14]) and 100% in data set [1] (setting [15]). The inhibition at 25 µg/mL in data set [1] (setting [14]) amounted to 68.5%; in data set [1] (setting [15]) it was 100%. Moreover, the results for the inhibition at 50 µg/mL in data set [1] (setting [14]) and in data set [1] (setting [15]) were 88.9% and 100%, respectively. Also, the inhibition at 100 µg/mL was 100% in data set [1] (setting [14]) and 94.7% in data set [1] (setting [15]). Besides, the figures for the inhibition at 200 µg/mL in data set [1] (setting [14]) and in data set [1] (setting [15]) were 100% and 94.7%, respectively. Further, the IC50 in data set [1] (setting [16]) was in the range of 2.5 to 5 µg/mL (≈ 8.95 to 17.9 µM). Also, in data set [1] (Table 2), the “giant cell formation inhibiting effect” value was 90-100%. In data set [2], the “survival in the acute toxicity test” value is given as “all of the tested mice survived”.
Take `OC[C@@H]1[C@@H](O)[C@H](O)[C@@H](O)CN1CCC(c1ccccc1)c1ccccc1` [Example 3, N-(3,3-diphenyl-propyl)-1-deoxynojirimycin]: the Fusion index stood at 0.26 in data set [1] (3.13 µg/ml, mixed culture 5 hours); 1.50 in data set [1] (3.13 µg/ml, mixed culture 20 hours); 0.54 in data set [1] (6.25 µg/ml, mixed culture 5 hours); 2.16 in data set [1] (6.25 µg/ml, mixed culture 20 hours); 0.26 in data set [1] (setting [4]); 1.37 in data set [1] (setting [5]). Moreover, the Fusion index is reported as 0.50 in data set [1] (setting [6]), 0.89 in data set [1] (setting [7]), 0.32 in data set [1] (setting [8]) and 0.62 in data set [1] (setting [9]). The inhibition at 3.13 µg/mL in data set [1] (setting [14]) was 51.9%; in data set [1] (setting [15]) it was 21.1%. The inhibition at 6.25 µg/mL in data set [1] (setting [14]) and in data set [1] (setting [15]) was 0% throughout. Also, the inhibition at 12.5 µg/mL in data set [1] (setting [14]) was 51.9%; in data set [1] (setting [15]), 27.9%. Moreover, the values for the inhibition at 25 µg/mL in data set [1] (setting [14]) and in data set [1] (setting [15]) were 7.4% and 53.2%, respectively. For the same molecule, the inhibition at 50 µg/mL in data set [1] (setting [14]) stood at 40.7%; in data set [1] (setting [15]), 67.4%.
Molecule `OC[C@@H]1[C@@H](O)[C@H](O)[C@@H](O)CN1CC=Cc1cccc(F)c1` [Example 4, N-[3-(3-fluorophenyl) 2-propenyl]-1-deoxynojirimycin] returned a Fusion index in data set [1] (2.5 µg/ml, mixed culture 20 hours) of 1.38. The same molecule showed a Fusion index in data set [1] (5 µg/ml, mixed culture 20 hours) of 1.04. Further, in data set [1] (10 µg/ml, mixed culture 20 hours), the Fusion index came to 0.52. In data set [1] (20 µg/ml, mixed culture 20 hours), this molecule yielded a Fusion index of 0.32. For the same molecule, in data set [1] (40 µg/ml, mixed culture 20 hours), the Fusion index is 0.01. Also, in data set [1] (setting [15]), the inhibition at 2.5 µg/mL came to 28%, the inhibition at 5 µg/mL is 46%, the inhibition at 10 µg/mL stood at 73% and the inhibition at 20 µg/mL stood at 83%. Besides, the inhibition at 40 µg/mL in data set [1] (setting [15]) was determined as 99%. For the same molecule, in data set [1] (setting [16]), the IC50 was in the range of 5 to 10 µg/mL (≈ 16.8 to 33.6 µM).
Turning to `OC[C@@H]1[C@@H](O)[C@H](O)[C@@H](O)CN1CCCCc1ccccc1` [Example 5, N-(4-Phenylbutyl)-1-deoxynojirimycin], in data set [1] (setting [3]), the IC50 lay within 5 to 10 µg/mL (≈ 16.9 to 33.9 µM).
Take `OC[C@@H]1[C@@H](O)[C@H](O)[C@@H](O)CN1CC=Cc1cccc(Cl)c1` [Example 6, N-[3-(3-Chlorophenyl)-2-propenyl]-1-deoxynojirimycin]: in data set [1], the “50% Inhibitory Concentration (IC₅₀)” value was 50 µg/mL.
The same measure, in the same setting: for `OC[C@@H]1[C@@H](O)[C@H](O)[C@@H](O)CN1CC=Cc1ccccc1Cl` [Example 7, N-[3-(2-Chlorophenyl)-2-propenyl]-1-deoxynojirimycin] the value was 60 µg/mL; for `OC[C@@H]1[C@@H](O)[C@H](O)[C@@H](O)CN1CCC=Cc1ccc(Cl)cc1` [Example 8, N-[4-(4-Chlorophenyl)-3-butenyl]-1-deoxynojirimycin], 70 µg/mL; for `OC[C@@H]1[C@@H](O)[C@H](O)[C@@H](O)CN1CC=C(c1ccc(F)cc1)c1ccc(F)cc1` [Example 9, N-[3,3-Di(4-fluorophenyl)-2-propenyl]-1-deoxynojirimycin], above 100 µg/mL.
On to `Cc1ccc(CCCN2C[C@H](O)[C@@H](O)[C@H](O)[C@H]2CO)cc1` [Example 10, N-[3-(4-Methylphenyl)-propyl]-1-deoxynojirimycin], for which the IC50 in data set [1] (setting [3]) is 5 to 10 µg/mL (≈ 16.9 to 33.9 µM).
Same read-out and setting: with `OC[C@@H]1[C@@H](O)[C@H](O)[C@@H](O)CN1CCCc1ccc(F)cc1` [Example 11, N-[3-(4-Fluorophenyl)-propyl]-1-deoxynojirimycin] the figure was 5 to 10 µg/mL (≈ 16.7 to 33.4 µM).
On to `OC[C@@H]1[C@@H](O)[C@H](O)[C@@H](O)CN1CC=Cc1ccc(F)cc1` [Example 12, N-[3(4-Fuluorophenyl)-2-propenyl]-1-deoxynojirimycin], for which the “50% Inhibitory Concentration (IC₅₀)” value in data set [1] is 10 µg/mL.
Take `OC[C@@H]1[C@@H](O)[C@H](O)[C@@H](O)CN1CC=Cc1ccccc1F` [Example 13, N-[3-(2-Fluorophenyl)-2-propenyl]-1-deoxynojirimycin]: the IC50 in data set [1] (setting [3]) fell in the range of 2.5 to 5 µg/mL (≈ 8.41 to 16.8 µM).
Same read-out and setting: with `OC[C@@H]1[C@@H](O)[C@H](O)[C@@H](O)CN1CCC=Cc1ccccc1F` [Example 14, N-[4-(2-Fluorophenyl)-3-butenyl]-1-deoxynojirimycin] the figure was 5 to 10 µg/mL (≈ 16.1 to 32.1 µM); with `OC[C@@H]1[C@@H](O)[C@H](O)[C@@H](O)CN1CCCC(F)(F)F` [Example 15, N-(4,4,4-Trifluorobutyl)-1-deoxynojirimycin], 5 to 10 µg/mL (≈ 18.3 to 36.6 µM).
Turning to `OC[C@@H]1[C@@H](O)[C@H](O)[C@@H](O)CN1CCCCC(F)(F)F` [Example 16, N-(5,5,5-Trifluoropentyl)-1-deoxynojirimycin], the IC50 in data set [1] (setting [3]) was in the range of 2.5 to 5 µg/mL (≈ 8.7 to 17.4 µM).
